± gives the expanded uncertainty stated by the source.
Assay: mn = molality of the nth substance listed, in mol/kg
Conditions: 101.3 kPa, Liquid; for speed of sound: Frequency=3 MHz, Single path-length method; for mass density: Vibrating tube method

Which results are given for CCCCn1cc[n+](C)c1.[Br-] [1-butyl-3-methylimidazolium bromide] + O?
speed of sound (293.15 K, m1 = 0.1009): 1493.5 ± 1 m/s; speed of sound (293.15 K, m1 = 0.2003): 1503.6 ± 1.1 m/s; speed of sound (293.15 K, m1 = 0.2985): 1512.9 ± 1.1 m/s; speed of sound (293.15 K, m1 = 0.4006): 1522.6 ± 1.1 m/s; mass density (293.15 K, m1 = 0.1009): 1003.27 ± 0.31 kg/m3; mass density (293.15 K, m1 = 0.2003): 1008.11 ± 0.31 kg/m3; mass density (293.15 K, m1 = 0.2985): 1012.68 ± 0.31 kg/m3; mass density (293.15 K, m1 = 0.4006): 1017.54 ± 0.31 kg/m3; speed of sound (298.15 K, m1 = 0.1009): 1506.5 ± 1 m/s; speed of sound (298.15 K, m1 = 0.2003): 1515.8 ± 1.1 m/s; speed of sound (298.15 K, m1 = 0.2985): 1524.5 ± 1.1 m/s; speed of sound (298.15 K, m1 = 0.4006): 1533.1 ± 1.1 m/s; mass density (298.15 K, m1 = 0.1009): 1002.03 ± 0.31 kg/m3; mass density (298.15 K, m1 = 0.2003): 1006.83 ± 0.31 kg/m3; mass density (298.15 K, m1 = 0.2985): 1011.33 ± 0.31 kg/m3; mass density (298.15 K, m1 = 0.4006): 1016.13 ± 0.31 kg/m3; speed of sound (303.15 K, m1 = 0.1009): 1517.9 ± 1 m/s; speed of sound (303.15 K, m1 = 0.2003): 1526.2 ± 1.1 m/s; speed of sound (303.15 K, m1 = 0.2985): 1534.1 ± 1.1 m/s; speed of sound (303.15 K, m1 = 0.4006): 1542 ± 1.1 m/s; mass density (303.15 K, m1 = 0.1009): 1000.58 ± 0.31 kg/m3; mass density (303.15 K, m1 = 0.2003): 1005.32 ± 0.31 kg/m3; mass density (303.15 K, m1 = 0.2985): 1009.77 ± 0.31 kg/m3; mass density (303.15 K, m1 = 0.4006): 1014.5 ± 0.31 kg/m3; speed of sound (308.15 K, m1 = 0.1009): 1527.7 ± 1 m/s; speed of sound (308.15 K, m1 = 0.2003): 1535.2 ± 1.1 m/s; speed of sound (308.15 K, m1 = 0.2985): 1542.4 ± 1.1 m/s; speed of sound (308.15 K, m1 = 0.4006): 1549.4 ± 1.1 m/s; mass density (308.15 K, m1 = 0.1009): 998.918 ± 0.31 kg/m3; mass density (308.15 K, m1 = 0.2003): 1003.62 ± 0.31 kg/m3; mass density (308.15 K, m1 = 0.2985): 1008 ± 0.31 kg/m3; mass density (308.15 K, m1 = 0.4006): 1012.7 ± 0.31 kg/m3

With CCCCn1cc[n+](C)c1.[Cl-] [1-butyl-3-methylimidazolium chloride] + O as the molecule, how does the speed of sound (293.15 K, m1 = 0.101) read?
Its speed of sound is 1496.7 ± 1 m/s.

And the speed of sound (293.15 K, m1 = 0.1997)?
Its speed of sound is 1510.4 ± 1.1 m/s.

What about the speed of sound (293.15 K, m1 = 0.3007) of the same molecule?
The speed of sound was 1523.6 ± 1.1 m/s.

And the speed of sound (293.15 K, m1 = 0.4004)?
Its speed of sound is 1536.1 ± 1.1 m/s.

What about the mass density (293.15 K, m1 = 0.101) of the same molecule?
The mass density was 999.535 ± 0.3 kg/m3.

What about the mass density (293.15 K, m1 = 0.1997) of the same molecule?
The mass density was 1000.82 ± 0.3 kg/m3.

What about the mass density (293.15 K, m1 = 0.3007) of the same molecule?
Its mass density is 1002.1 ± 0.3 kg/m3.

What about the mass density (293.15 K, m1 = 0.4004) of the same molecule?
The mass density was 1003.37 ± 0.3 kg/m3.

And the speed of sound (298.15 K, m1 = 0.101)?
Its speed of sound is 1509.8 ± 1 m/s.

What about the speed of sound (298.15 K, m1 = 0.1997) of the same molecule?
Its speed of sound is 1522.7 ± 1.1 m/s.

And the speed of sound (298.15 K, m1 = 0.3007)?
Its speed of sound is 1534.7 ± 1.1 m/s.

What about the speed of sound (298.15 K, m1 = 0.4004) of the same molecule?
Its speed of sound is 1546.5 ± 1.1 m/s.

What about the mass density (298.15 K, m1 = 0.101) of the same molecule?
Its mass density is 998.308 ± 0.3 kg/m3.

What about the mass density (298.15 K, m1 = 0.1997) of the same molecule?
Its mass density is 999.565 ± 0.3 kg/m3.

And the mass density (298.15 K, m1 = 0.3007)?
The mass density was 1000.79 ± 0.3 kg/m3.

And the mass density (298.15 K, m1 = 0.4004)?
The mass density was 1002 ± 0.3 kg/m3.

And the speed of sound (303.15 K, m1 = 0.101)?
The speed of sound was 1521.1 ± 1 m/s.

What about the speed of sound (303.15 K, m1 = 0.1997) of the same molecule?
The speed of sound was 1533 ± 1.1 m/s.

And the speed of sound (303.15 K, m1 = 0.3007)?
Its speed of sound is 1544.3 ± 1.1 m/s.

And the speed of sound (303.15 K, m1 = 0.4004)?
The speed of sound was 1555.3 ± 1.1 m/s.

And the mass density (303.15 K, m1 = 0.101)?
Its mass density is 996.883 ± 0.3 kg/m3.

And the mass density (303.15 K, m1 = 0.1997)?
The mass density was 998.065 ± 0.3 kg/m3.

What about the mass density (303.15 K, m1 = 0.3007) of the same molecule?
The mass density was 999.244 ± 0.3 kg/m3.

And the mass density (303.15 K, m1 = 0.4004)?
Its mass density is 1000.4 ± 0.3 kg/m3.

And the speed of sound (308.15 K, m1 = 0.101)?
Its speed of sound is 1530.8 ± 1 m/s.

And the speed of sound (308.15 K, m1 = 0.1997)?
Its speed of sound is 1542 ± 1 m/s.

What about the speed of sound (308.15 K, m1 = 0.3007) of the same molecule?
The speed of sound was 1552.7 ± 1.1 m/s.

What about the speed of sound (308.15 K, m1 = 0.4004) of the same molecule?
Its speed of sound is 1562.6 ± 1.1 m/s.

What about the mass density (308.15 K, m1 = 0.101) of the same molecule?
Its mass density is 995.222 ± 0.3 kg/m3.

And the mass density (308.15 K, m1 = 0.1997)?
Its mass density is 996.342 ± 0.3 kg/m3.

And the mass density (308.15 K, m1 = 0.3007)?
The mass density was 997.484 ± 0.3 kg/m3.

What about the mass density (308.15 K, m1 = 0.4004) of the same molecule?
Its mass density is 998.586 ± 0.3 kg/m3.
